Biological target: GST tagged truncated human mutant G2019S LRRK2 (Homo sapiens (Human), UniProt Q5S007, G2019S)
Experiment: LRRK2 Km ATP LanthaScreen Assay
Format: biochemical
Conditions: G2019S LRRK2, 134 μM ATP (Km ATP), mean values; for IC50: read-out: LRRK2 pIC50 (converted)
How it was run: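 Enzyme (GST-tagged, truncated) was preincubated with compound for 15 min at RT in 50 mM Tris pH 8.5, 10 mM MgCl2, 0.01% Brij-35, 1 mM EGTA, 2 mM DTT and 0.05 mM orthovanadate. Fluorescein-LRRKtide and 134 μM ATP (Km) were then added for 90 min. EDTA and Tb-anti-pERM antibody stopped the reaction; the TR-FRET 520/495 ratio gave 4-parameter IC50s, reported as mean pIC50.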

GST tagged truncated human mutant G2019S LRRK2, sequence (Q5S007 970-2527 G2019S): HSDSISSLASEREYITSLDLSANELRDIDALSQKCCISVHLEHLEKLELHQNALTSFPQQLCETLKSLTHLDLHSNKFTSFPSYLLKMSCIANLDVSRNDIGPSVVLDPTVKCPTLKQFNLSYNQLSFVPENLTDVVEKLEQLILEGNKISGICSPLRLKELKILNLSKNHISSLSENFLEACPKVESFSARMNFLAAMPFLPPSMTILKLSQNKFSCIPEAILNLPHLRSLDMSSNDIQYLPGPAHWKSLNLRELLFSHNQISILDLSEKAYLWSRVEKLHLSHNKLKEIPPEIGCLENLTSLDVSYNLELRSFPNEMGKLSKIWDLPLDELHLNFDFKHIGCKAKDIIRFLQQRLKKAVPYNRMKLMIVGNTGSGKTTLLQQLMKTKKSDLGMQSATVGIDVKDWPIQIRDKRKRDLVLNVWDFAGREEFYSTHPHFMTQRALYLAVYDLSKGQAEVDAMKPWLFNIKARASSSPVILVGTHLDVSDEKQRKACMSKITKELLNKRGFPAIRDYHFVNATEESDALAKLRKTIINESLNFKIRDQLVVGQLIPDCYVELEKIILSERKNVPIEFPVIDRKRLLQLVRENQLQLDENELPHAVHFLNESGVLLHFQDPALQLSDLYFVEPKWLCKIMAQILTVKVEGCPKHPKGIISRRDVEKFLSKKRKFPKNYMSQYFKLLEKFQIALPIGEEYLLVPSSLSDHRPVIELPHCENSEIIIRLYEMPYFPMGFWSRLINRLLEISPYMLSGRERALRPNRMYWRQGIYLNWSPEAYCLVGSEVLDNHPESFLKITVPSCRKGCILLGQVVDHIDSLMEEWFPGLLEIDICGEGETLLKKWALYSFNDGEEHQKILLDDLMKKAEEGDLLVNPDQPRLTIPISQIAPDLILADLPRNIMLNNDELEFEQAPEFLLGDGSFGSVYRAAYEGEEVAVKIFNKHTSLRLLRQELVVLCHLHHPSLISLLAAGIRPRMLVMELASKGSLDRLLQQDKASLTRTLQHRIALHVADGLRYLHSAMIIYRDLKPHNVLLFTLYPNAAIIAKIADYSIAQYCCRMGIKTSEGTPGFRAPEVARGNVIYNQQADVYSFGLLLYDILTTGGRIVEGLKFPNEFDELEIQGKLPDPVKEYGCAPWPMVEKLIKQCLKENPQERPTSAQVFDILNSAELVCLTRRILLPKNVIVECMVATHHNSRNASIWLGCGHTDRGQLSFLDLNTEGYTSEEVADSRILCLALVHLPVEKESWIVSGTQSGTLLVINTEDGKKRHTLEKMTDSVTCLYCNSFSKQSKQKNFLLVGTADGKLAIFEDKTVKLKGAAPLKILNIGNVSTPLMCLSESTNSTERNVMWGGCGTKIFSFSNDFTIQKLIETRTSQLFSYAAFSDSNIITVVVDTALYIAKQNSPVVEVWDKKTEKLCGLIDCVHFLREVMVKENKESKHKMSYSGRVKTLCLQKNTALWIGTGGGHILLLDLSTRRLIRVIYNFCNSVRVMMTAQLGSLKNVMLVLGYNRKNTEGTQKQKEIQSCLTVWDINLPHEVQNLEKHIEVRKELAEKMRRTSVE

Compound	LRRK2 pIC50	IC50 [µM]
Cc1c(Nc2ncc3cc(Cl)c([C@@H]4CCN(C5COC[C@H]5O)C[C@H]4F)cc3n2)cnn1C1CC1 (single isomer, unassigned) [Ex-4.128, (3S,4S)(3S,4S) or (3S,4S)(3R,4R) or (3R,4R)(3S,4S) or (3R,4R)(3R,4R) 4-[4-{6-chloro-2-[(1-cyclopropyl-5-methyl-1H-pyrazol-4-yl)amino]quinazolin-7-yl}-3-fluoropiperidin-1-yl]oxolan-3-ol]	8.99	–
Cc1c(Nc2ncc3cc(Cl)c(C4CCN(C(=O)[C@H](C)O)C4)cc3n2)cnn1C1CC1 (single isomer, unassigned) [Ex-4.190, (2S)(3S) or (2S)(3R) 1-(3-{6-chloro-2-[(1-cyclopropyl-5-methyl-1H-pyrazol-4-yl)amino]quinazolin-7-yl}pyrrolidin-1-yl)-2-hydroxypropan-1-one]	8.73	–
N#CC1CCC(N2CC[C@@H](c3cc4nc(Nc5cnn(C6CC6)c5Cl)ncc4cc3Cl)[C@H](F)C2)C1 (single isomer, unassigned) [Ex-4.109, (1R,3S)-3-((3S,4S) or (1S,3R)-3-((3S,4S) or (1R,3R)-3-((3S,4S) or (1S,3S)-3-((3S,4S) or (1R,3S)-3-((3R,4R) or (1S,3R)-3-((3R,4R) or (1R,3R)-3-((3R,4R) or 1S,3S)-3-((3R,4R) 4-(6-chloro-2-((5-chloro-1-cyclopropyl-1H-pyrazol-4-yl)amino)quinazolin-7-yl)-3-fluoropiperidin-1-yl)cyclopentane-1-carbonitrile]	7.99	–
CC(n1ncc(Nc2ncc3cc(Cl)c([C@@H]4CCN(C)C[C@H]4F)cc3n2)c1Cl)C(C)(C)O (single isomer, unassigned) [Ex-4.61, (R)(3S,4S) or (R)(3R,4R) or (S)(3S,4S) or (S)(3R,4R) 3-(5-chloro-4-{[6-chloro-7-(3-fluoro-1-methylpiperidin-4-yl)quinazolin-2-yl]amino}-1H-pyrazol-1-yl)-2-methylbutan-2-ol]	8.80	–
N#Cc1cc2cnc(Nc3cnn(C4CC4)c3Cl)nc2cc1C1CCN(C2COC2)CC1 [Ex-6.3, 2-((5-chloro-1-cyclopropyl-1H-pyrazol-4-yl)amino)-7-(1-(oxetan-3-yl)piperidin-4-yl)quinazoline-6-carbonitrile]	9.07	–
Cc1c(Nc2ncc3cc(Cl)c(C4CCN(C[C@H](O)c5ccc(F)cc5)CC4)cc3n2)cnn1C1CC1 [Ex-4.213, (1R)-2-(4-{6-chloro-2-[(1-cyclopropyl-5-methyl-1H-pyrazol-4-yl)amino]quinazolin-7-yl}piperidin-1-yl)-1-(4-fluorophenyl)ethan-1-ol]	8.50	–
OC1COCC1n1ncc(Nc2ncc3cc(Cl)c(C4CCN(C5COC5)CC4)cc3n2)c1Cl (stereo not drawn) [Ex-2.48, 4-[5-chloro-4-({6-chloro-7-[1-(oxetan-3-yl)piperidin-4-yl]quinazolin-2-yl}amino)-1H-pyrazol-1-yl]oxolan-3-ol]	8.77	–
O=S1(=O)CC(N2CC[C@H](c3cc4nc(Nc5cnn(C6CC6)c5Cl)ncc4cc3Cl)[C@@H](F)C2)C1 (single isomer, unassigned)	9.02	–
Cc1cc2cnc(Nc3cnn(C45CC(F)(C4)C5)c3Cl)nc2cc1[C@@H]1CCN([C@@H]2COC[C@@H]2O)C[C@H]1F (single isomer, unassigned) [Ex-4.232, (3S,4S)(3S,4S) or (3S,4S)(3R,4R) or (3R,4R)(3S,4S) or (3R,4R)(3R,4R) 4-[4-(2-{[5-chloro-1-(3-fluorobicyclo[1.1.1]pentan-1-yl)-1H-pyrazol-4-yl]amino}-6-methylquinazolin-7-yl)-3-fluoropiperidin-1-yl]oxolan-3-ol]	>9.20	–
Cc1c(Nc2ncc3cc(Cl)c(C4CCN([C@@H]5COC[C@@H]5O)CC4)cc3n2)cnn1C(C)(C)C#N (single isomer, unassigned) [Ex-2.74, (3S,4S) or (3R,4R) 2-[4-({6-chloro-7-[1-(4-hydroxyoxolan-3-yl)piperidin-4-yl]quinazolin-2-yl}amino)-5-methyl-1H-pyrazol-1-yl]-2-methylpropanenitrile]	>9.20	–
Cc1c(Nc2ncc3cc(Cl)c(C4CCN(C5COC5)CC4)cc3n2)cnn1C12CC(C1)C2 [Ex-2.21, N-[1-(bicyclo[1.1.1]pentan-1-yl)-5-methyl-1H-pyrazol-4-yl]-6-chloro-7-[1-(oxetan-3-yl)piperidin-4-yl]quinazolin-2-amine]	–	0.000676
CCn1ncc(Nc2ncc3cc(Cl)c(C4CC45CC5)cc3n2)c1C (single isomer, unassigned) [Ex-1.1, (S) or (R) 6-chloro-N-(1-ethyl-5-methyl-1H-pyrazol-4-yl)-7-(spiro[2.2]pentan-1-yl)quinazolin-2-amine]	–	0.0117
Clc1cc2cnc(Nc3cnn(C4CC4)c3Cl)nc2cc1C1CC2CCC(C1)N2C1COC1 (stereo not drawn) [Ex-4.112, cis or trans 6-chloro-N-(5-chloro-1-cyclopropyl-1H-pyrazol-4-yl)-7-(8-(oxetan-3-yl)-8-azabicyclo[3.2.1]octan-3-yl)quinazolin-2-amine]	>9.20	–
Cc1nn(CC2(C#N)CC2)cc1Nc1ncc2cc(Cl)c(C3CCN(C4COC4)CC3)cc2n1 [Ex-2.17, 1-{[4-({6-chloro-7-[1-(oxetan-3-yl)piperidin-4-yl]quinazolin-2-yl}amino)-3-methyl-1H-pyrazol-1-yl]methyl}cyclopropane-1-carbonitrile]	>9.20	–
Clc1cc2cnc(Nc3cnn(C4CC4)c3Cl)nc2cc1C1CCN(C2COC2)C1 (single isomer, unassigned) [Ex-4.32, (S) or (R) 6-chloro-N-(5-chloro-1-cyclopropyl-1H-pyrazol-4-yl)-7-[1-(oxetan-3-yl)pyrrolidin-3-yl]quinazolin-2-amine]	–	0.0166
Cn1ncc(Nc2ncc3cc(Cl)c([C@H]4CCN([C@@H]5COC[C@@H]5O)C[C@@H]4F)cc3n2)c1Cl (single isomer, unassigned) [Ex-4.189, (3S,4S)(3S,4S) or (3S,4S)(3R,4R) or (3R,4R)(3S,4S) or (3R,4R)(3R,4R) 4-(4-{6-chloro-2-[(5-chloro-1-methyl-1H-pyrazol-4-yl)amino]quinazolin-7-yl}-3-fluoropiperidin-1-yl)oxolan-3-ol]	>9.20	–
Cc1c(Nc2ncc3cc(Cl)c(C4CCN(C5COC5)[C@@H](C)C4)cc3n2)cnn1C1CC1 (single isomer, unassigned) [Ex-1.14, (S) or (R) 6-chloro-N-(1-cyclopropyl-5-methyl-1H-pyrazol-4-yl)-7-(2-methyl-1-(oxetan-3-yl)piperidin-4-yl)quinazolin-2-amine]	–	< 0.000631
Cn1nc(C2CC2)cc1Nc1ncc2cc(Cl)c(C3CCN(C4COC4)CC3)cc2n1 [Ex-2.62, 6-chloro-N-(3-cyclopropyl-1-methyl-1H-pyrazol-5-yl)-7-[1-(oxetan-3-yl)piperidin-4-yl]quinazolin-2-amine]	7.88	–
Cc1cc2cnc(Nc3cnn(C4CC4(F)F)c3Cl)nc2cc1[C@H]1CCN(C2COC[C@@H]2O)C[C@@H]1F (single isomer, unassigned) [Ex-4.139, (R)(3S,4S)(3S,4S) or (R)(3S,4S)(3R,4R) or (R)(3R,4R)(3S,4S) or (R)(3R,4R)(3R,4R) or (S)(3S,4S)(3S,4S) or (S)(3S,4S)(3R,4R) or (S)(3R,4R)(3S,4S) or (S)(3R,4R)(3R,4R) 4-[4-(2-{[5-chloro-1-(2,2-difluorocyclopropyl)-1H-pyrazol-4-yl]amino}-6-methylquinazolin-7-yl)-3-fluoropiperidin-1-yl]oxolan-3-ol]	>9.20	–
Cc1cc2cnc(Nc3cnn(C4CC4)c3C)nc2cc1[C@@H]1CCN(C2COC2)C[C@H]1F (single isomer, unassigned) [Ex-5.3, (3S,4S) or (3R,4R) N-(1-cyclopropyl-5-methyl-1H-pyrazol-4-yl)-7-[3-fluoro-1-(oxetan-3-yl)piperidin-4-yl]-6-methylquinazolin-2-amine]	8.96	–
F[C@H]1CN(C2COC2)CC[C@@H]1c1cc2nc(Nc3cnn(C4CC4(F)F)c3Cl)ncc2cc1Cl (single isomer, unassigned) [Ex-8.31, (R)(3S,4S) or (S)(3S,4S) or (R)(3R,4R) or (S)(3R,4R) 6-chloro-N-[5-chloro-1-(2,2-difluorocyclopropyl)-1H-pyrazol-4-yl]-7-[3-fluoro-1-(oxetan-3-yl)piperidin-4-yl]quinazolin-2-amine]	>9.20	–
Cc1nsc(Nc2ncc3cc(Cl)c([C@H]4CCN(C5CCOC5)C[C@@H]4F)cc3n2)c1Cl (single isomer, unassigned) [Ex-8.22, (3S,4S)(S) or (3S,4S)(R) or (3R,4R)(S) or (3R,4R)(R) 6-chloro-N-(4-chloro-3-methyl-1,2-thiazol-5-yl)-7-[3-fluoro-1-(oxolan-3-yl)piperidin-4-yl]quinazolin-2-amine]	8.68	–
Cc1c(Nc2ncc3cc(Cl)c(C4CCN(C5CC[C@H]5O)CC4)cc3n2)cnn1C1CC1 (single isomer, unassigned) [Ex-1.5, (1R,2S) or (1R,2R) or (1S,2S) or (1S,2R) 2-(4-(6-chloro-2-((1-cyclopropyl-5-methyl-1H-pyrazol-4-yl)amino)quinazolin-7-yl)piperidin-1-yl)cyclobutan-1-ol]	>9.20	–
Cc1c(Nc2ncc3cc(Cl)c(C4C[C@H]5C[C@@H]4CN5C4COC4)cc3n2)cnn1C1CC1 (single isomer, unassigned) [Ex-4.126, (1S,4S) or (1R,4R) 6-chloro-N-(1-cyclopropyl-5-methyl-1H-pyrazol-4-yl)-7-[2-(oxetan-3-yl)-2-azabicyclo[2.2.1]heptan-5-yl]quinazolin-2-amine]	7.64	–

Source: patent US12540131B2 (Merck Sharp & Dohme LLC, priority 2019, dated 2026)
